Data published in ChEMBL document CHEMBL4350972, “Design, synthesis and pharmacological evaluation of a novel mTOR-targeted anti-EV71 agent” (Eur J Med Chem, 2019).
≈ marks a conversion by molar mass, not a printed value. Calls of active or inactive are those of the source. The rule behind the calls is not given here.

How the values were obtained:
[1] = test system: Enterovirus A71; test: Antiviral activity against Enterovirus A71 infected in human RD cells assessed as reduction in virus-induced cell death incubated for 4 days by CellTiter-Glo luminescence assay; format: functional, organism-based; details: Enterovirus A, 96 h
[2] = Aqueous solubility of the compound; format: physicochemical
[3] = Cytotoxicity against human RD cells incubated for 4 days by CellTiter-Glo luminescence assay; format: cell-based
[4] = target: mTORC1 (Homo sapiens) (UniProt P42345+Q8N122+Q9BVC4); test: Inhibition of mTORC1 in human RD cells assessed as reduction in P70S6K1 phosphorylation at Thr 389 site at 20 uM incubated for 2 hrs in presence of insulin by Western blot analysis; format: cell-based
[5] = target: mTORC2 (Homo sapiens) (UniProt P42345+Q6R327+Q9BVC4+Q9BPZ7); test: Inhibition of mTORC2 in human RD cells assessed as reduction in Akt phosphorylation at Ser473 site at 20 uM incubated for 2 hrs in presence of insulin by Western blot analysis; format: cell-based
[6] = Ratio of aqueous solubility for Torin2 to aqueous solubility for test compound; format: physicochemical; details: buffer

Compound | solubility [2] [µg/mL] | inhibition [4] | inhibition [5] | Ratio [6] | IC50 [1] [nM] | CC50 at 96 h [3] [nM]
N#C/C=C/c1ccc2ncc3oc(=O)n(-c4cccc(C(F)(F)F)c4)c3c2c1 |  |  |  |  |  | > 200000
COc1cncc(-c2ccc3ncc(/C=C/C(C)=O)c(Nc4cccc(C(F)(F)F)c4)c3c2)c1 |  |  |  |  |  | > 200000
O=c1oc2cnc3ccc(-c4cnc5ccccc5c4)cc3c2n1-c1cccc(C(F)(F)F)c1 |  |  |  |  |  | 68900
COC(=O)/C=C/c1ccc2ncc3oc(=O)n(-c4cccc(C(F)(F)F)c4)c3c2c1 |  |  |  |  |  | 72000
CC(=O)/C=C/c1cnc2ccc(-c3ccc(N)cc3)cc2c1Nc1cccc(C(F)(F)F)c1 |  | inactive | inactive |  | 5140 | 5140
CO[C@H]1C[C@@H]2CC[C@@H](C)[C@@](O)(O2)C(=O)C(=O)N2CCCC[C@H]2C(=O)O[C@H]([C@H](C)C[C@@H]2CC[C@@H](O)[C@H](OC)C2)CC(=O)[C@H](C)/C=C(\C)[C@@H](O)[C@@H](OC)C(=O)[C@H](C)C[C@H](C)/C=C/C=C/C=C/1C |  | Active |  |  |  | 
O=C(Nc1ccc(-c2ccc3ncc4ccc(=O)n(-c5cccc(C(F)(F)F)c5)c4c3c2)cn1)Oc1ccccc1 |  | Active | Active |  | 90 | 200
Nc1cccc(Nc2ccc3ncc4ccc(=O)n(-c5cccc(C(F)(F)F)c5)c4c3c2)c1 |  | Active | Active |  | 890 | 7580
CC(=O)/C=C/c1cnc2ccc(-c3ccc(F)nc3)cc2c1Nc1cccc(C(F)(F)F)c1 |  |  |  |  |  | 2230
COc1cncc(-c2ccc3ncc4oc(=O)n(-c5cccc(C(F)(F)F)c5)c4c3c2)c1 |  |  |  |  |  | 68500
NC(=O)NC/C=C/c1ccc2ncc3oc(=O)n(-c4cccc(C(F)(F)F)c4)c3c2c1 |  | inactive | inactive |  | 48900 | 66600
COc1ncccc1-c1ccc2ncc3ccc(=O)n(-c4cccc(C(F)(F)F)c4)c3c2c1 |  |  |  |  |  | > 200000
CC(=O)/C=C/c1cnc2ccc(-c3cnc4ccccc4c3)cc2c1Nc1cccc(C(F)(F)F)c1 |  |  |  |  |  | 680
O=C(Nc1ccc(-c2ccc3ncc4ccc(=O)n(-c5cccc(C(F)(F)F)c5)c4c3c2)cn1)OCc1ccccc1 |  | Active | Active |  | 23700 | 1000
CC(=O)/C=C/c1cnc2ccc(-c3cccc(N)c3)cc2c1Nc1cccc(C(F)(F)F)c1 |  |  |  |  |  | > 200000

Second part, led by results:

solubility [2] [µg/mL] | inhibition [4] | inhibition [5] | Ratio [6] | Compound | IC50 [1] [nM] | CC50 at 96 h [3] [nM]
1.29 (≈ 2.98 µM) |  |  |  | Nc1ccc(-c2ccc3ncc4ccc(=O)n(-c5cccc(C(F)(F)F)c5)c4c3c2)cn1 | 10 | 
 | Active |  |  | O=C1Cc2cc(-c3ccc4ncc5ccc(=O)n(-c6cccc(C(F)(F)F)c6)c5c4c3)ccc2N1 | 7400 | 10300
 | Active | Active |  | CC(C)C(=O)Nc1ccc(-c2ccc3ncc4ccc(=O)n(-c5cccc(C(F)(F)F)c5)c4c3c2)cn1 | 820 | 460
 | Active | Active |  | O=c1ccc2cnc3ccc(-c4ccc(F)nc4)cc3c2n1-c1cccc(C(F)(F)F)c1 | 70 | 230
 | Active | Active |  | CN(C)c1ccc(-c2ccc3ncc4ccc(=O)n(-c5cccc(C(F)(F)F)c5)c4c3c2)cn1 | 270 | 170
 | Active | Active |  | CC(C)(C)OC(=O)Nc1ccc(-c2ccc3ncc4ccc(=O)n(-c5cccc(C(F)(F)F)c5)c4c3c2)cn1 | 2470 | 690
 | Active | Active |  | O=c1ccc2cnc3ccc(-c4ccc(N5CCOCC5)nc4)cc3c2n1-c1cccc(C(F)(F)F)c1 | 2630 | 2910
 | Active | Active |  | O=c1ccc2cnc3ccc(-c4ccc(N5CCCC5)nc4)cc3c2n1-c1cccc(C(F)(F)F)c1 | 2470 | 1790
 | Active | Active |  | CCCCC(=O)Nc1ccc(-c2ccc3ncc4ccc(=O)n(-c5cccc(C(F)(F)F)c5)c4c3c2)cn1 | 200 | 700
 | inactive | inactive |  | Cc1ccc(-c2ccc3ncc4oc(=O)n(-c5cccc(C(F)(F)F)c5)c4c3c2)cn1 | 4780 | 16900
 | Active |  | 15 | CN1CCN(c2ccc(-c3ccc4ncc5ccc(=O)n(-c6cccc(C(F)(F)F)c6)c5c4c3)cn2)CC1 | 90 | 180
 | Active | Active | 5 | O=c1ccc2cnc3ccc(-c4cccnc4F)cc3c2n1-c1cccc(C(F)(F)F)c1 | 59 | 1230
 | Active | Active |  | Nc1cccc(Nc2ccc3ncc4ccc(=O)n(-c5cccc(C(F)(F)F)c5)c4c3c2)n1 | 2470 | 5190
 | Active | Active |  | O=C(Cc1ccccc1)Nc1ccc(-c2ccc3ncc4ccc(=O)n(-c5cccc(C(F)(F)F)c5)c4c3c2)cn1 | 560 | 740
 | Active | Active |  | CCCC(=O)Nc1ccc(-c2ccc3ncc4ccc(=O)n(-c5cccc(C(F)(F)F)c5)c4c3c2)cn1 | 170 | 750
 | Active | Active |  | COc1ccc(-c2ccc3ncc4ccc(=O)n(-c5cccc(C(F)(F)F)c5)c4c3c2)cn1 | 40 | 130
 | Active | Active |  | CCC(=O)Nc1ccc(-c2ccc3ncc4ccc(=O)n(-c5cccc(C(F)(F)F)c5)c4c3c2)cn1 | 27 | 40
